From patent US20260207585A1, “METHODS AND COMPOSITIONS FOR THE TREATMENT OF PARKINSON'S DISEASE, HUNTINGTON'S DISEASE, AMYOTROPHIC LATERAL SCLEROSIS, AND LEARNING DISORDERS” (Cedars-Sinai Medical Center, priority 2022, published 2026)
Like-named read-outs stand apart in the source and are kept apart here.

Assays:
[1] = biological target: ASH1L (Homo sapiens, UniProt Q9NR48); assay: Methyltransferase inhibition panel: ASH1L; assay type: biochemical
Method: (§1) The ability of ETP69 to inhibit methyltransferases was tested.

[2] = biological target: EZH1 Complex (Homo sapiens, UniProt Q92800); assay: Methyltransferase inhibition panel: EZH1 Complex; assay type: biochemical; conditions: NT1721 20 μM; substrate Core Histone 0.05 mg/mL
Method: as §1

[3] = biological target: EZH2(Y641F) Complex (Homo sapiens, UniProt Q15910, Y641F); assay: Methyltransferase inhibition panel: EZH2(Y641F) Complex; assay type: biochemical; conditions: NT1721 20 μM; substrate Core Histone 0.05 mg/mL
Method: as §1

[4] = biological target: PRDM9 (Homo sapiens, UniProt Q9NQV7); assay: Methyltransferase inhibition panel: PRDM9; assay type: biochemical
Method: as §1

[5] = biological target: PRMT1 (Homo sapiens, UniProt Q99873); assay: Methyltransferase inhibition panel: PRMT1; assay type: biochemical
Method: as §1

[6] = biological target: PRMT5 (C449S)/MEP50 (Homo sapiens, UniProt O14744, C449S); assay: Methyltransferase inhibition panel: PRMT5 (C449S)/MEP50; assay type: biochemical
Method: as §1

[7] = biological target: T1, SUV39H1 (Homo sapiens, UniProt O43463); assay: Methyltransferase inhibition panel: SUV39H1; assay type: biochemical
T1 sequence (O43463 1-412): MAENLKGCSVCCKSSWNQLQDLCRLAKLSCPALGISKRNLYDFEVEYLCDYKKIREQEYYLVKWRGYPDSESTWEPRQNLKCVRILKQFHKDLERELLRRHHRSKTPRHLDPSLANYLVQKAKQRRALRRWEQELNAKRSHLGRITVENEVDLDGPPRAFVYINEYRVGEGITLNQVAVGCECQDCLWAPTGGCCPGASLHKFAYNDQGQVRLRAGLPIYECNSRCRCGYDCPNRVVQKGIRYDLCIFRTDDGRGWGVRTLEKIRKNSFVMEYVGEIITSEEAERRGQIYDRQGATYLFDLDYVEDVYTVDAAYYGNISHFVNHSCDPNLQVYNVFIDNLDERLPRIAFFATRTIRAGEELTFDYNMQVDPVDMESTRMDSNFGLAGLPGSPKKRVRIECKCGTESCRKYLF
Method: as §1

[8] = biological target: SUV420H1TV2 (Homo sapiens, UniProt Q4FZB7); assay: Methyltransferase inhibition panel: SUV420H1TV2; assay type: biochemical
Method: as §1

[9] = test system: H3K9me3; assay: H3K9me3 staining in cingulate/cerebral cortex and hippocampus; assay type: in vivo, mice; design: reduction of H3K9me3 IR area / reduction of hippocampal H3K9me3 levels: concentration or dose not given beside the values; conditions: for reduction of hippocampal H3K9me3 levels: 15 days after injection; for decrease in neuronal H3K9me3 irradiance: cingulate cortex; for reduction of H3K9me3 IR area: cortex
Method: The experimental protocol is depicted in FIG. 2A. Mice were treated with ETP69 or DMSO. After 2 days, they were tested on the color X-maze. At day 12, they were tested on the Barnes maze. On day 14, they were tested for fear conditioning. Brain tissue was isolated as depicted for analysis of H3K9me3 staining on days 4 and 15, as depicted in FIG. 2B-2D. Levels of H3K9me3 correlated with the percent of alterations at day 4 as depicted in FIG. 2E. At day 15, H3K9me3 was decreased in mice treated with ETP69 as compared to mice treated with DMSO. Levels of H3K9me3 was decreased in both the cingulate cortex and the hippocampus at 4 and 15 days (FIGS. 2J-2M).
(§2) The effects of single and repeated ETP69 injections in mice were tested. The experimental timeline is depicted in FIG. 5. Three parallel injection conditions were tested: a single ETP69 condition, a boosted ETP69 injection, and repeated ETP69 injections. The single injection mice received one injection of ETP69 or DMSO at Day 0. The mice that received a boosted injection received one injection of ETP69 or DMSO at day 0 and one injection at day 9. The mice that received repeated injections received 11 injections of ETP69 or DMSO at day 0 or day 9. Both wildtype and AD model (APP/PS1-transgenic) mice were tested.
AD+ brains were stained for neuronal H3K9me3 and DAPI. Representative images of the cingulate cortex and hippocampus of DMSO and ETP69 treated mice are depicted in FIGS. 8A and 8C, respectively. Neuronal H3K9me3 irradiance in the cingulate cortex is quantified in FIG. 8B. […] H3K9me3 staining in the DG correlated with performance in the Barnes Test, while K3K9me3 staining in the hippocampus was correlated with performance in the fear conditioning test.
(§3) The effects of ETP69 on cerebral H3K9me3 levels was tested in old mice, in both a neurodegenerative model and WT siblings. The levels of brain H3K9me3 at days 4 (short-term) and 15 (long-term) following i.p. ETP69 injection (S regimen cohorts) were measured. […] These findings indicate that a single dose of ETP69 is sufficient to sustainably reduce H3K9me3 in the brains of old WT and neurodegenerative mice. Consistent with the observations in 18-month-old mice, ETP69 mitigated neuroinflammation, including by reduced ionized calcium-binding adaptor molecule 1 (Iba-1)^+ microgliosis in neurodegenerative mice (40%, p=0.0021; FIG. 16D).

[10] = test system: wildtype and AD model (APP/PS1-transgenic) mice; assay: Visual stimuli X-maze (ViS4M) test, colour and contrast modes; assay type: in vivo
Method: as §2
FIG. 6C-6F depicts the results of the mice on the color mode of the visual stimuli X-maze test. […] FIG. 6G-611 depict the results of the contrast mode of the visual stimuli X-maze test.
Old (18-month-old) mice were administered ETP69. Both a neurodegenerative model (AD+) and wild type siblings were tested. Mice were treated with i.p. injection of ETP69 [E; 10 mg/kg dissolved in dimethyl sulfoxide (DMSO)].

[11] = test system: ionized calcium-binding adaptor molecule 1 (Iba-1); assay: Iba-1 immunoreactivity (microgliosis) in cerebral cortex; assay type: in vivo; conditions: neurodegenerative mice
Method: as §3

[12] = NT1721 20 μM, substrate Nucleosomes 0.05 mg/mL
[13] = read-out: Enzyme % Activity (relative to DMSO controls) Data 1
[14] = read-out: Enzyme % Activity (relative to DMSO controls) Data 2

PRDM9, sequence (Q9NQV7 whole entry): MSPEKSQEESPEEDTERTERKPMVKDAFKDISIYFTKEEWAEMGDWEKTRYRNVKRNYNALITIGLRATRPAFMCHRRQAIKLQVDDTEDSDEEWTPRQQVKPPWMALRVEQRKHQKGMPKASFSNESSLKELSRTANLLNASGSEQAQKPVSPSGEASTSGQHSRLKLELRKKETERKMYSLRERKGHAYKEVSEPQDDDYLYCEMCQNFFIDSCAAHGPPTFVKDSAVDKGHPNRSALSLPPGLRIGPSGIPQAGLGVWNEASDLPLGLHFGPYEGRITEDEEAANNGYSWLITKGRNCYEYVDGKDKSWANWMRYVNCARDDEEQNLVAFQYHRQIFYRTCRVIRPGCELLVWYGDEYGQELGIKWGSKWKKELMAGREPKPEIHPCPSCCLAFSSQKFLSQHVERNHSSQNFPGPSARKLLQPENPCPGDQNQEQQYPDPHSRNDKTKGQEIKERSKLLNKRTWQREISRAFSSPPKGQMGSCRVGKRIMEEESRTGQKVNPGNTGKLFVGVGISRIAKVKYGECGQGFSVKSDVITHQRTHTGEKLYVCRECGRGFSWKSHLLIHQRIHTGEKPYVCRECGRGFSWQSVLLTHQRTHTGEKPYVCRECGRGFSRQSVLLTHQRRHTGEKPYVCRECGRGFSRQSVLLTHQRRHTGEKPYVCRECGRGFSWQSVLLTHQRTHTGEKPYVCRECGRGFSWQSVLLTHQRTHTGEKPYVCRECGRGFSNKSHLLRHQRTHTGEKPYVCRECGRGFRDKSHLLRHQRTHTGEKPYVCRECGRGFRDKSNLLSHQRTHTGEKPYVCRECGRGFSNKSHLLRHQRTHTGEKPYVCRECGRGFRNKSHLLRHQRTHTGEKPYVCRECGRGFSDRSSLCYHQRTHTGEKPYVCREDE
EZH2(Y641F) Complex, sequence (Q15910 whole entry Y641F): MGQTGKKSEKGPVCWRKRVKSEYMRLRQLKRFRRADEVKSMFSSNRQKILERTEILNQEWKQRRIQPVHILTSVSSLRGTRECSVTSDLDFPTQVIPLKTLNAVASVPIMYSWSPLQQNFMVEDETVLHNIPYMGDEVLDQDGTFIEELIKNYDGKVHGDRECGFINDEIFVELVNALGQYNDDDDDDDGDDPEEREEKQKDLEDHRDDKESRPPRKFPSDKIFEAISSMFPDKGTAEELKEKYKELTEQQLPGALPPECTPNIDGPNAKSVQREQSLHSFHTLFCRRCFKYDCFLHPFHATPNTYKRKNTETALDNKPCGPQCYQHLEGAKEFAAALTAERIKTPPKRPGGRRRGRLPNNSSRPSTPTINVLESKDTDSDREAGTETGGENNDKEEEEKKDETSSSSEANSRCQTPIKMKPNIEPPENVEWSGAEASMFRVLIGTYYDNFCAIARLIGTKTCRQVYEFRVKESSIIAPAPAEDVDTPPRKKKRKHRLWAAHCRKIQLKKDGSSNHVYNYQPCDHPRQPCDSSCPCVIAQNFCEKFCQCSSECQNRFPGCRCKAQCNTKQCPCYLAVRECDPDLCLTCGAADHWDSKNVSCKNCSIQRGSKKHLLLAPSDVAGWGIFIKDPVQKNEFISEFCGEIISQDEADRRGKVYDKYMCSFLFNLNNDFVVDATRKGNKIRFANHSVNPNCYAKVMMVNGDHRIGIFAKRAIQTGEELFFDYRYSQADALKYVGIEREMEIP
EZH2(Y641F) Complex, sequence (O75530 whole entry partner): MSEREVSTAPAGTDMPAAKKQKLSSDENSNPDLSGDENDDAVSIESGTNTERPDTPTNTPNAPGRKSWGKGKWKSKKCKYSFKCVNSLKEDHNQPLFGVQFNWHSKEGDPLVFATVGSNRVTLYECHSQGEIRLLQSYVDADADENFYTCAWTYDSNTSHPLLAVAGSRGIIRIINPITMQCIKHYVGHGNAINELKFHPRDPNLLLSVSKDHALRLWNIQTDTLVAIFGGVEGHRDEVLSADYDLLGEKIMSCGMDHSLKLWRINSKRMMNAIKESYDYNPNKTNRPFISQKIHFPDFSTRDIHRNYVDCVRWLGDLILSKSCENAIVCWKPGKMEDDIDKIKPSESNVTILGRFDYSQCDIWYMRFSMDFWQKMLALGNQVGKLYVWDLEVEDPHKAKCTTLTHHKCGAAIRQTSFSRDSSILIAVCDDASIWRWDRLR
EZH2(Y641F) Complex, sequence (Q15022 whole entry partner): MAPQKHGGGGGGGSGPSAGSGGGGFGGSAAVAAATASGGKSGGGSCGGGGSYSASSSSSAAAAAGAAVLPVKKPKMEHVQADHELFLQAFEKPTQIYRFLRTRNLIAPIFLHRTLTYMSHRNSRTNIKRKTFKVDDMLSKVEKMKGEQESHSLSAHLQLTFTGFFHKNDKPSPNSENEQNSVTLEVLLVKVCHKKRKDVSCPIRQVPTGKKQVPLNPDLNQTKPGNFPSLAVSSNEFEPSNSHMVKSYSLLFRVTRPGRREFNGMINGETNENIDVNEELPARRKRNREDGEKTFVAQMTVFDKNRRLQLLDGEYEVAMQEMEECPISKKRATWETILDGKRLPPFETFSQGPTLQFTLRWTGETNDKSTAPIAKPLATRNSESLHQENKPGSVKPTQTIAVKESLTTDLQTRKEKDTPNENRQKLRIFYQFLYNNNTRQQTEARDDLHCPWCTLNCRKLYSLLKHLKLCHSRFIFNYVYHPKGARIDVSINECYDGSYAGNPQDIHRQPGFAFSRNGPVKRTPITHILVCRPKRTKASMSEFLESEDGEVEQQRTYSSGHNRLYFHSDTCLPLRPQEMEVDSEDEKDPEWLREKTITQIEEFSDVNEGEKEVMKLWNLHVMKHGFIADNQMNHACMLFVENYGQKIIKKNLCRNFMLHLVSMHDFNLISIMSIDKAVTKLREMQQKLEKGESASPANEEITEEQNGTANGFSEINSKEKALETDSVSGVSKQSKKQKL
EZH2(Y641F) Complex, sequence (Q09028 whole entry partner): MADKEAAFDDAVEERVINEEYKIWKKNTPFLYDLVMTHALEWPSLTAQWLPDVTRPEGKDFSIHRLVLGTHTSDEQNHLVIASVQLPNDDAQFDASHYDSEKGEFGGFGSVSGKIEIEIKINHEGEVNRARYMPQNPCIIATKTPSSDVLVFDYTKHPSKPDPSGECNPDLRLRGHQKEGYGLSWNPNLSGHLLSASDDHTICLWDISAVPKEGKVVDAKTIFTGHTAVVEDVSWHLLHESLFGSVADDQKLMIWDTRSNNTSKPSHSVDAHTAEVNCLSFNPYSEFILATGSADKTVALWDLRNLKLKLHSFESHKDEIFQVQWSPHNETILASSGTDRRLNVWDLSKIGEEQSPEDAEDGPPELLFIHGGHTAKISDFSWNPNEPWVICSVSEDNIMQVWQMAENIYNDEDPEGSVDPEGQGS
EZH2(Y641F) Complex, sequence (Q6ZN18 whole entry partner): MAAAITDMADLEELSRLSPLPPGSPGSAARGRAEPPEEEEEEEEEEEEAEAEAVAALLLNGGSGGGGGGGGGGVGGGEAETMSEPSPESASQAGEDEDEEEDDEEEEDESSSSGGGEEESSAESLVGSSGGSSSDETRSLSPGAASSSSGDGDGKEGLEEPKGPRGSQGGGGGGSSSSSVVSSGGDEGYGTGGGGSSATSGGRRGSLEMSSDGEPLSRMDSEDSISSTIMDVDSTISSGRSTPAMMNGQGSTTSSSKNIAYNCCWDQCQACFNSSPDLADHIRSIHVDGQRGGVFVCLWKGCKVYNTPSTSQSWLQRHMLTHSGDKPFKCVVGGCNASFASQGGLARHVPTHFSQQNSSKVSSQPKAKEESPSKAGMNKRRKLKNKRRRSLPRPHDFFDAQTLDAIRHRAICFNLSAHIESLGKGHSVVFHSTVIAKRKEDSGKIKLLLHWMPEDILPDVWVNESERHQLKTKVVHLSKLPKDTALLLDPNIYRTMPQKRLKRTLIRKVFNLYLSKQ
SUV420H1TV2, sequence (Q4FZB7 1-393 isoform Q4FZB7-2): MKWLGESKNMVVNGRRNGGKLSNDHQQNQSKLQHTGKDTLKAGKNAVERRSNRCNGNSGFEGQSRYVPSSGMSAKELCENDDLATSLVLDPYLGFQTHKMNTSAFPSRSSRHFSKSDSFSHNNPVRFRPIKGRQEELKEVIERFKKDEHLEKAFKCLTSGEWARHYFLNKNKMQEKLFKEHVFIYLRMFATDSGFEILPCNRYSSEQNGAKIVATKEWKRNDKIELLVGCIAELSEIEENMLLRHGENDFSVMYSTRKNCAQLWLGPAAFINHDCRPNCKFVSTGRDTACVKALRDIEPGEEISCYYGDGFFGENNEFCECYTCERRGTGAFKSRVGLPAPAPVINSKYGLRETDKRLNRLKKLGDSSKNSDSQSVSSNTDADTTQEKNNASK
PRMT1, sequence (Q99873 whole entry): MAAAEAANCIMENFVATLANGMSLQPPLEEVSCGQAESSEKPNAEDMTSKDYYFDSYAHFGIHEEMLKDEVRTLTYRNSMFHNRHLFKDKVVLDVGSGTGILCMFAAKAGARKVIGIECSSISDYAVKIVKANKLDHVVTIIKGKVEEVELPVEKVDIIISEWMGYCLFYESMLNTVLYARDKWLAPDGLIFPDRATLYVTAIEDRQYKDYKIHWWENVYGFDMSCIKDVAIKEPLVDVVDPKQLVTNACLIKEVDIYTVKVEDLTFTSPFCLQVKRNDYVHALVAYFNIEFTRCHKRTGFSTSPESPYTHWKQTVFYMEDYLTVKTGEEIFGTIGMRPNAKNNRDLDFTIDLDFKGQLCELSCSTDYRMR

## CN1C(=O)[C@@]23C[C@](C)(C#N)[C@H](c4ccc5c(c4)OCO5)N2C(=O)[C@]1(C)SS3 (racemic) [ETP69, Rac-(3S,6S,7S,8aS)-6-(benzo[d][1,3]dioxol-5-yl)-2,3,7-trimethyl-1,4-dioxohexahydro-6H-3,8a-epidithiopyrrolo[1,2-a]pyrazine-7-carbonitrile]
[1]; [12]
  Enzyme % Activity (relative to DMSO controls) Data 1: 3.42%
  Enzyme % Activity (relative to DMSO controls) Data 2: 4.17%
[1]; summary of Table 1
  inhibition relative to DMSO controls: at least 7500
[2]
  Enzyme % Activity (relative to DMSO controls) Data 1: 103.44%
  Enzyme % Activity (relative to DMSO controls) Data 2: 104.86%
[3]
  Enzyme % Activity (relative to DMSO controls) Data 1: 102.54%
  Enzyme % Activity (relative to DMSO controls) Data 2: 102.95%
[4]; [13]
  remaining activity at 20 µM: 46.2%
[4]; [14]
  remaining activity at 20 µM: 47.1%
[4]; summary of Table 1
  inhibition relative to DMSO controls: at least 7500
[5]; [13]
  remaining activity at 20 µM: 114%
[5]; [14]
  remaining activity at 20 µM: 115%
[6]; [13]
  remaining activity at 20 µM: 121%
[6]; [14]
  remaining activity at 20 µM: 123%
[7]; [13]
  remaining activity at 20 µM: 2.36%
[7]; [14]
  remaining activity at 20 µM: 2.53%
[7]; summary of Table 1
  inhibition relative to DMSO controls: at least 7500
[8]; [13]
  remaining activity at 20 µM: 91.5%
[8]; [14]
  remaining activity at 20 µM: 90%
[9]; CA, WT mice
  reduction of hippocampal H3K9me3 levels: 36%
[9]; CA, neurodegenerative mice
  reduction of hippocampal H3K9me3 levels: 54%
[9]; DG, neurodegenerative mice
  reduction of hippocampal H3K9me3 levels: 42%
[9]; cingulate cortex and hippocampus, 4 and 15 days
  Levels of H3K9me3: decreased
[9]; AD+ mice, day 4
  decrease in neuronal H3K9me3 irradiance: 40%
[9]; AD+ mice, day 14
  decrease in neuronal H3K9me3 irradiance: 40%
[9]; wildtype mice, day 4
  decrease in neuronal H3K9me3 irradiance: 27%
[9]; WT old mice, 4 days after single i.p. injection
  reduction of H3K9me3 IR area: 27%
[9]; neurodegenerative mice, after 15 days
  reduction of H3K9me3 IR area: 40%
[9]; neurodegenerative old mice, 4 days after single i.p. injection
  reduction of H3K9me3 IR area: 40%
[9]; day 15, vs mice treated with DMSO
  H3K9me3: decreased
[9]; hippocampus, AD+ mice, vs AD+ mice administered DMSO
  decrease in H3K9me3 irradiance: 47%
[9]; neurons, astrocytes, and microglia macrophages, AD+ mice
  H3K9 expression (H3K9me3 repression mark), cell-specific: reduced
[10]; color mode, AD+ mice
  percent alternation and bidirectional movement: significant increase
[10]; contrast mode, AD+ mice
  percent alternation: significant increase
[10]; old WT mice, single dose 10 mg/kg i.p., p=0.0027
  colour X-maze spontaneous alternations: increased
[11]
  reduction of Iba-1+ microgliosis: 40%
